Measurements reported in the OPERA property sets (Mansouri et al. 2018).

Details: not given
`C[Si]1(C)O[Si](C)(C)O[Si](C)(C)O[Si](C)(C)O1` showed a boiling point of 176 °C, a log10 Henry constant (atm·m³/mol) of 1.08 and a log10 vapour pressure (mmHg) of 0.0212. For the same compound, the melting point was 17.5 °C.
`CCOC(=O)c1cccnc1` gave a boiling point of 224 °C and a melting point of 8.5 °C.
Compound `C=NCC#N` has a melting point of 129 °C.
With `O=CC=O` the boiling point was 50.4 °C, the log10 Henry constant (atm·m³/mol) was -8.48 and the log10 vapour pressure (mmHg) was 2.41. For the same compound, the melting point was 15 °C and the ready biodegradability was “readily biodegradable”.
Compound `Cc1c(C)c(O)c(C)c(C)c1O` has a melting point of 233 °C.
In the case of `Nc1ccc(N=Nc2ccc([N+](=O)[O-])cc2)cc1`, the log10 vapour pressure (mmHg) was -9.52 and the melting point was 215 °C.
`N#CCCCCl` showed a boiling point of 192 °C.
In the case of `CCCCCCCCCCCCN1CC(C(=O)O)CC1=O` (centres undefined), the melting point was 39 °C.
Compound `CCCC(O)CC/C=C/C=C/C#CC#C/C=C/CO` (centres undefined) has a melting point of 87 °C.
Compound `CCC(=O)OC` has a boiling point of 79.8 °C, a log10 Henry constant (atm·m³/mol) of -3.76 and a log10 vapour pressure (mmHg) of 1.92. For the same compound, the melting point was -87.5 °C.
`O=C=Nc1ccc(Br)cc1` gave a boiling point of 226 °C.
Work on `C[B]C` yielded a boiling point of 70.5 °C and a melting point of -72.5 °C.
Compound `ClC(C(Cl)(Cl)Cl)C(Cl)(Cl)Cl` has a boiling point of 249 °C and a melting point of 11 °C.
With `COC(C)CC(OC)OC` (centres undefined) the boiling point was 157 °C.
Compound `NS(=O)(=O)c1ccc(SCCCCCO)cc1` has a melting point of 103 °C.
With `COC(=O)c1ccc(Cl)cc1[N+](=O)[O-]` the melting point was 44 °C.
For `NC(=O)OCC(O)COc1ccc(Cl)cc1` (centres undefined), the melting point was 90 °C.
Work on `CCOC(=O)c1ccccc1N` yielded a boiling point of 268 °C and a melting point of 13 °C.
`CC(C)S(=O)(=O)O` showed a melting point of -37 °C.
`FCCCl` gave a boiling point of 53.1 °C and a melting point of -50 °C.
Compound `CCCCCCCCC(C(=O)O)C(=O)O` has a melting point of 116 °C.
`CCC(C)COC(C)=O` (centres undefined) gave a boiling point of 140 °C.
Work on `ClC(Cl)(Cl)c1ccccc1` yielded a boiling point of 221 °C, a log10 vapour pressure (mmHg) of -0.383 and a melting point of -5 °C. The ready biodegradability was “readily biodegradable”.
For `CCCCCCCCCCCCCCN`, the boiling point was 291 °C, the log10 vapour pressure (mmHg) was -3.01 and the melting point was 83.1 °C.
`CNC(=O)Oc1ccc2c(c1)[C@]1(C)CCN(C)[C@@H]1N2C` showed a melting point of 106 °C.
With `Clc1cc(Cl)c2c(c1Cl)Oc1ccccc1O2` the log10 Henry constant (atm·m³/mol) was -4.44, the log10 Koa was 8.97 and the log10 vapour pressure (mmHg) was -6.12. The melting point was 128 °C.
For `CCCOC(=O)CC`, the boiling point was 122 °C, the log10 vapour pressure (mmHg) was 1.14 and the melting point was -75.9 °C.
`CCC(C)C(C)(COC(N)=O)COC(N)=O` (centres undefined) gave a melting point of 77 °C.
`OCc1ccc(Cl)c(Cl)c1` showed a boiling point of 150 °C and a melting point of 36 °C.
In the case of `CC(C)(C)c1cc(O)ccc1O`, the boiling point was 273 °C and the melting point was 128 °C.
Compound `Cc1cc(C)c(C(=O)O)cc1C` has a melting point of 152 °C.
For `CC1=NN(c2cc(Cl)c(S(=O)(=O)O)cc2Cl)C(=O)C1`, the ready biodegradability was “not readily biodegradable”.
Compound `CCCCB(O)O` has a melting point of 95 °C.
`O=C=NS(=O)(=O)Cl` gave a boiling point of 107 °C and a melting point of -44 °C.
Compound `N#CC#N` has a log10 vapour pressure (mmHg) of 3.63 and a melting point of -27.9 °C.
For `CC(C)CC(C)O` (centres undefined), the boiling point was 132 °C, the log10 Henry constant (atm·m³/mol) was -4.35 and the log10 vapour pressure (mmHg) was 0.724. For the same compound, the melting point was -90 °C and the ready biodegradability was “readily biodegradable”.
In the case of `CNc1cccc2ccccc12`, the boiling point was 294 °C and the melting point was 174 °C.
Compound `c1ccc2nc3ccccc3nc2c1` has a log10 Koc (L/kg) of 3.37 and a melting point of 176 °C.
`O=C1CCOc2ccccc21` gave a melting point of 36.5 °C.
Compound `COC(=O)c1ccc([N+](=O)[O-])cc1` has a melting point of 95 °C.
`O=C(O)C(F)(F)C(F)(F)C(F)(F)C(F)(F)C(F)(F)C(F)(F)F` gave a boiling point of 177 °C and a log10 vapour pressure (mmHg) of -0.876.
For `CC(/C=C/C=C(\C)C(=O)O[C@@H]1O[C@H](CO[C@@H]2O[C@H](CO)[C@@H](O)[C@H](O)[C@H]2O)[C@@H](O)[C@H](O)[C@H]1O)=C\C=C\C=C(C)\C=C\C=C(/C)C(=O)O[C@@H]1O[C@H](CO[C@@H]2O[C@H](CO)[C@@H](O)[C@H](O)[C@H]2O)[C@@H](O)[C@H](O)[C@H]1O`, the melting point was 186 °C.
With `CCN(CC)C(=O)[C@@H]1C=C2c3cccc4[nH]c(Br)c(c34)C[C@H]2N(C)C1` the melting point was 124 °C.
Compound `C=CC=CC(=O)O` has a melting point of 79 °C.
`CC(=O)C(F)(F)F` gave a boiling point of 22 °C and a log10 Henry constant (atm·m³/mol) of -5.11.
For `CCCC(=O)OC1CCCCC1`, the boiling point was 213 °C.
`CC(C)=C(C)Cl` showed a boiling point of 96 °C.
With `CCOC(=O)C(=Cc1ccccc1)C(=O)OCC` the melting point was 32 °C.
In the case of `CCCCCCCSCCCCCCC`, the boiling point was 298 °C.
Compound `CCc1cccc(N)c1` has a boiling point of 214 °C and a melting point of -64 °C.
Compound `O[C@@H]1CCCC[C@H]1Cl` has a melting point of 29 °C.
With `COC(=O)CCCCC(=O)OC` the log10 vapour pressure (mmHg) was -1.22 and the melting point was 10.3 °C.
In the case of `O=C(OCC(=O)N1CCCCCC1)c1ccccc1`, the melting point was 108 °C.
For `CC[C@@H]1CN2CCc3c([nH]c4cccc(OC)c34)[C@H]2C[C@@H]1/C(=C\OC)C(=O)OC`, the melting point was 104 °C.
`ClCc1cc(Cl)cc(Cl)c1` gave a melting point of 36 °C.
For `CC(CCO)CCO`, the ready biodegradability was “readily biodegradable”.

Same assay, conditions: fish
`CN(C)C(=S)SSC(=S)N(C)C` showed a log10 BCF of 0.53 and a log10 biotransformation half-life (days) of -1.18.
With `[Na][O]c1c(Cl)c(Cl)c(Cl)c(Cl)c1Cl` the log10 BCF was 2.78.
With `Cc1cc(C)c2ccccc2c1` the log10 biotransformation half-life (days) was 0.51.
Compound `C=C(C)c1ccc(Cl)cc1` has a log10 BCF of 2.84 and a log10 biotransformation half-life (days) of 1.3.
In the case of `CC(Cl)(Cl)C(=O)[O][Na]`, the log10 BCF was 0.86.
In the case of `Brc1cc(Br)c(Br)c(Oc2c(Br)c(Br)c(Br)c(Br)c2Br)c1`, the log10 BCF was 5.68.
With `C[Si]1(C)O[Si](C)(C)O[Si](C)(C)O[Si](C)(C)O1` the log10 biotransformation half-life (days) was 1.88.
`Clc1cc(Cl)c2c(c1Cl)Oc1ccccc1O2` gave a log10 BCF of 2.75 and a log10 biotransformation half-life (days) of 0.43.
In the case of `OCc1ccc(Cl)c(Cl)c1`, the log10 BCF was 0.54.
`CC1=NN(c2cc(Cl)c(S(=O)(=O)O)cc2Cl)C(=O)C1` gave a log10 BCF of 1.51.
